Source: US20150087627A1, “COMBINATION OF KINASE INHIBITORS AND USES THEREOF” (Intellikine LLC, priority 2011, published 2015)

Tests used:
Format in all cases: biochemical
mTOR = biological target: T1, mTOR (Homo sapiens, UniProt P42345); assay: mTOR kinase inhibition assay (radiometric or LanthaScreen TR-FRET); settings: read-out: mTORC IC50
T1 construct: purchased Invitrogen
Description: The cross-activity or lack thereof of one or more compounds of the present invention against mTor can be measured according to any procedures known in the art or methods disclosed below.
The compounds described herein can be tested against recombinant mTOR (Invitrogen) in an assay containing 50 mM HEPES, pH 7.5, 1 mM EGTA, 10 mM MgCl2, 2.5 mM, 0.01% Tween, 10 μM ATP (2.5 μCi of μ-32P-ATP), and 3 μg/mL BSA. Rat recombinant PHAS-1/4EBP1 (Calbiochem; 2 mg/mL) is used as a substrate. Reactions are terminated by spotting onto nitrocellulose, which is washed with 1M NaCl/1% phosphoric acid (approximately 6 times, 5-10 minutes each). Sheets are dried and the transferred radioactivity quantitated by phosphorimaging.
For instance, one can use Invitrogen's LanthaScreen™ Kinase assay to test the inhibitors of mTOR disclosed herein. This assay is a time resolved FRET platform that measures the phosphorylation of GFP labeled 4EBP1 by mTOR kinase. The kinase reaction is performed in a white 384 well microtiter plate. The total reaction volume is 20 ul per well and the reaction buffer composition is 50 mM HEPES pH7.5, 0.01% Polysorbate 20, 1 mM EGTA, 10 mM MnCl2, and 2 mM DTT. In the first step, each well receives 2 ul of test compound in 20% dimethylsulphoxide resulting in a 2% DMSO final concentration. […] The plate is sealed and incubated for 1 hour at room temperature. […] The plate is sealed, incubated for 1 hour at room temperature, and then read on a plate reader set up for LanthaScreen™ TR-FRET. Data is analyzed and IC50s are generated using GraphPad Prism 5.

PI3K δ = biological target: T2, PI3K δ (Homo sapiens, UniProt O00329); assay: PI 3-Kinase (human) HTRF assay, PI3K δ; settings: read-out: PI3K δ IC50
T2 construct: purchased Upstate / Millipore Corporation
T2 sequence (O00329 whole entry): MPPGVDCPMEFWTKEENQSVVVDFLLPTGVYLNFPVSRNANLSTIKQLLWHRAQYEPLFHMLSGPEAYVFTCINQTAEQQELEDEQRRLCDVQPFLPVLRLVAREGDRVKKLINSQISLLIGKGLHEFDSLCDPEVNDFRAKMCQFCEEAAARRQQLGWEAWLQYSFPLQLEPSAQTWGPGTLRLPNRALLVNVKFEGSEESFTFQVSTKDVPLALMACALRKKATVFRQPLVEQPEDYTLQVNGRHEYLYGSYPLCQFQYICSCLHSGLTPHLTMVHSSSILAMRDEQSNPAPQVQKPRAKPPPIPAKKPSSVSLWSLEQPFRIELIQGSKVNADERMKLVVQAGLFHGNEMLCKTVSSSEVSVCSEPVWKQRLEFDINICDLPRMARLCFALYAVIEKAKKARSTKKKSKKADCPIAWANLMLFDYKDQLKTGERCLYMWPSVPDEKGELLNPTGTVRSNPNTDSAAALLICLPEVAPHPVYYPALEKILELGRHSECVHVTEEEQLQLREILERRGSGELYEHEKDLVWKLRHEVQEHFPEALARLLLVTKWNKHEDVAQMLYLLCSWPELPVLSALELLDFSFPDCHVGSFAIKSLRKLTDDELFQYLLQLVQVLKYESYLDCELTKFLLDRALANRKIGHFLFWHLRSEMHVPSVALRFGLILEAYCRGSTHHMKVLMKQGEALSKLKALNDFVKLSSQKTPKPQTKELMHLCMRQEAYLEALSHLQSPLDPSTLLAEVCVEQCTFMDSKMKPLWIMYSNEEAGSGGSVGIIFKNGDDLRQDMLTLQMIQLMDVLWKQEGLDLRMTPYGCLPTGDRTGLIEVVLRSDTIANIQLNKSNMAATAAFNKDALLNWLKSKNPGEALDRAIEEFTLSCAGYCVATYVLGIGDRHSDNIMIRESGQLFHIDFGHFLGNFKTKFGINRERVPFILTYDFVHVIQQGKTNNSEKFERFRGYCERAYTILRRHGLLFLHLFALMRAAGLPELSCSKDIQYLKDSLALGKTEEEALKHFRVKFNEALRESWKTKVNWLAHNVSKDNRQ
T2 sequence (P27986 whole entry partner): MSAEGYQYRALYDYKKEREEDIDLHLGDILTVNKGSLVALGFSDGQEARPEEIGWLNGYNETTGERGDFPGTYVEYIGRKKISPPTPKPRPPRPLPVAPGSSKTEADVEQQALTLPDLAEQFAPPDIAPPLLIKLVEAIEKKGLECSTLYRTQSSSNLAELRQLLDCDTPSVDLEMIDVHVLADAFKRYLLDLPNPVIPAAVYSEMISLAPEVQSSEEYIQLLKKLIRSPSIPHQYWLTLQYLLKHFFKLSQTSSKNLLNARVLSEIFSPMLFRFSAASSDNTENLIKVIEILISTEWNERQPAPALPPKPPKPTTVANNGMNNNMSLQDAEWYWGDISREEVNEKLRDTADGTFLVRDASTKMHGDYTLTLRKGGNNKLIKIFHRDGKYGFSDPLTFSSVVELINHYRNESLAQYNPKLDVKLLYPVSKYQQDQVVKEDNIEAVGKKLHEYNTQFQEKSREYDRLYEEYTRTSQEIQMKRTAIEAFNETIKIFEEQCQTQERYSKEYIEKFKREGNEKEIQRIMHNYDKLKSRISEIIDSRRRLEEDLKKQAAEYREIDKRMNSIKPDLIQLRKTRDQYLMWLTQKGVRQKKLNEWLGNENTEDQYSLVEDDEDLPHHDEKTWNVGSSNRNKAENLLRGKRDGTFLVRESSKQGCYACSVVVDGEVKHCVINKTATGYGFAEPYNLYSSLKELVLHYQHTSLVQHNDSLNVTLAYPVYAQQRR

PI3K γ (p110γ) = biological target: T3, PI3K γ (p110γ) (Homo sapiens, UniProt P48736); assay: PI 3-Kinase (human) HTRF assay, PI3K γ; settings: read-out: PI3K γ IC50
T3 construct: purchased Upstate / Millipore Corporation
Description: Briefly, the assay is a time resolved FRET assay that indirectly measures PIP3 product formed by the activity of a PI3-K. The kinase reaction is performed in a microtiter plate (e.g., a 384 well microtiter plate). The total reaction volume is approximately 20 ul per well. In the first step, each well receives 2 ul of test compound in 20% dimethylsulphoxide resulting in a 2% DMSO final concentration. […] The plate is sealed and incubated for 15 minutes at room temperature. […] The plate is sealed and incubated for 1 hour at room temperature. The reaction is stopped by adding 5 ul of Stop Solution per well and then 5 ul of Detection Mix is added per well. The plate is sealed, incubated for 1 hour at room temperature, and then read on an appropriate plate reader. Data is analyzed and IC50s are generated using GraphPad Prism 5.

PI3K α (p110α/p85α) = biological target: T4, PI3K α (p110α/p85α) (Homo sapiens, UniProt P42336); assay: PI 3-Kinase (human) HTRF assay, PI3K α; settings: read-out: PI3K α IC50
T4 construct: purchased Upstate / Millipore Corporation

PI3K β (p110β/p85α) = biological target: T5, PI3K β (p110β/p85α) (Homo sapiens, UniProt P42338); assay: PI 3-Kinase (human) HTRF assay, PI3K β; settings: read-out: PI3K β IC50
T5 construct: purchased Upstate / Millipore Corporation
T5 sequence (P42338 whole entry): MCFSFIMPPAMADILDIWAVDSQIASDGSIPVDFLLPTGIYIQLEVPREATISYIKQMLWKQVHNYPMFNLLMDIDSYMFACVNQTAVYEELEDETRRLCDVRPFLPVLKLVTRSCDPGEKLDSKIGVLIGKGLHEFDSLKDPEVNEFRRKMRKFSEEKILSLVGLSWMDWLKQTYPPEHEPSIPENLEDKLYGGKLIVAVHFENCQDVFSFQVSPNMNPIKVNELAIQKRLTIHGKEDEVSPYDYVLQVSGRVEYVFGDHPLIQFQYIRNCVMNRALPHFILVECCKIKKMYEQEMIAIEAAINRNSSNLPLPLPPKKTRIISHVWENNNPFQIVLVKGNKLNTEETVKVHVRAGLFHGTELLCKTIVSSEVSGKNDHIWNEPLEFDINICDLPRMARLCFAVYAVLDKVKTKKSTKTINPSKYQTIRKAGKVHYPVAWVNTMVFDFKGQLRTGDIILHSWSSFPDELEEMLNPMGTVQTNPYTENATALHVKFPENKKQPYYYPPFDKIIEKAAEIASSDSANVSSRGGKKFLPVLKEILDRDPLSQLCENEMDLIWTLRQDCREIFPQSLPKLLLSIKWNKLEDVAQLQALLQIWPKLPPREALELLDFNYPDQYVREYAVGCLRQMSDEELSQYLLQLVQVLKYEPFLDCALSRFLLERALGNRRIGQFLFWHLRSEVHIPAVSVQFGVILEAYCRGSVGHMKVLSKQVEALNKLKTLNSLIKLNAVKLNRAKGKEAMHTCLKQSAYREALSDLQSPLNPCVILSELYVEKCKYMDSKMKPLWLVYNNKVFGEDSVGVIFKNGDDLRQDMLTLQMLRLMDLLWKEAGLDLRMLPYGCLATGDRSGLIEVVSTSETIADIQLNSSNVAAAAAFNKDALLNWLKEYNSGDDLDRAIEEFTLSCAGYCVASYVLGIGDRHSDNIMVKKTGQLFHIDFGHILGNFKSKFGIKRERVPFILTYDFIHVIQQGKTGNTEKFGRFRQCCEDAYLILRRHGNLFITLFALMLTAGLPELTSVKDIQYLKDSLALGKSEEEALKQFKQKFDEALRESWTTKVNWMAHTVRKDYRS
T5 sequence (P27986 whole entry partner): as the sequence (P27986 whole entry partner) above

T1 sequence (P42345 1360-2549 limits assumed): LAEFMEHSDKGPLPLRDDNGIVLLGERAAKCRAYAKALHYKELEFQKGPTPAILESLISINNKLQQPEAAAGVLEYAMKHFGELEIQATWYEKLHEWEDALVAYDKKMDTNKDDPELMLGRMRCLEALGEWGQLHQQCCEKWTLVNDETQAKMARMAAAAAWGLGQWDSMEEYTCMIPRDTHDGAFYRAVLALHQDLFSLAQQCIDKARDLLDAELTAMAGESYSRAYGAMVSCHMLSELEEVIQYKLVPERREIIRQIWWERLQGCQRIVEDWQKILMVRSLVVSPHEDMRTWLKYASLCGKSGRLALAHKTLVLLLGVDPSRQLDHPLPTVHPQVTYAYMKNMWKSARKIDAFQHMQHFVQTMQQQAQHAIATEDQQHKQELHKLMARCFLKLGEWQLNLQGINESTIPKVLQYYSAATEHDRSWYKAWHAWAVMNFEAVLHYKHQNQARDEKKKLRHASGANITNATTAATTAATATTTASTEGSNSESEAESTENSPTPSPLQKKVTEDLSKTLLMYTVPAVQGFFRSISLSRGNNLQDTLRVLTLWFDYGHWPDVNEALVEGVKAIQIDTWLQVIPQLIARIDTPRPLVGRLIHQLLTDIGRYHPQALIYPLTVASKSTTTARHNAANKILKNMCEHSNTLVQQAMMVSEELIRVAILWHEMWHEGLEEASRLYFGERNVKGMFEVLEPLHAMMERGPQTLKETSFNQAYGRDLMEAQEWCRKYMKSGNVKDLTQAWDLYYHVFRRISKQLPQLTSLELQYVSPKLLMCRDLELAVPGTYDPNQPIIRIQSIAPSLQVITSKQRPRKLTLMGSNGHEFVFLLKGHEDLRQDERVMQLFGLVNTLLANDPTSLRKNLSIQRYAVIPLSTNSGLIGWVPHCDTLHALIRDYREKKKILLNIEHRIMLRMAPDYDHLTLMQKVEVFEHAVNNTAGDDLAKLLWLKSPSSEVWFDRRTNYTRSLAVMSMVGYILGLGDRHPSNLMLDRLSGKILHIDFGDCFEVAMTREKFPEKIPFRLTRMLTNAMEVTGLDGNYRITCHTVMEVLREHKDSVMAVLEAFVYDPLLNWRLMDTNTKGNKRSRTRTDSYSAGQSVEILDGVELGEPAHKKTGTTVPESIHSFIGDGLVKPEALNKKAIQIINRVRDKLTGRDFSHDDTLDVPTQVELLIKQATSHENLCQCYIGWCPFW

| SMILES | IC50 (mTOR) | IC50 (PI3K δ) | IC50 (PI3K γ (p110γ)) | IC50 (PI3K α (p110α/p85α)) | IC50 (PI3K β (p110β/p85α)) |
| --- | --- | --- | --- | --- | --- |
| CN(C)CC(=O)N1CCN(c2cnc3ccc(-c4ccc5oc(N)nc5c4)cc3n2)CC1 [Compound 139] | > 10000 nM | < 1000 nM | < 1000 nM | < 100 nM | < 1000 nM |
| CN1CC(C(=O)N2CCN(c3cnc4ccc(-c5ccc6oc(N)nc6c5)cc4n3)CC2)C1 [Compound 156] | > 10000 nM | < 1000 nM | < 1000 nM | < 100 nM | < 1000 nM |
| Nc1nc2cc(-c3ccc4ncc(N5CC(C(=O)N6CCOCC6)C5)nc4c3)ccc2o1 [Compound 169] | < 10000 nM | < 1000 nM | < 1000 nM | < 100 nM | < 1000 nM |
| CN1CCN(C(=O)C2CN(c3cnc4ccc(-c5ccc6oc(N)nc6c5)cc4n3)C2)CC1 [Compound 170] | < 10000 nM | < 1000 nM | < 10000 nM | < 100 nM | < 1000 nM |
| Nc1nc2cc(-c3ccc4ncc(N5CCC(N6CCOCC6)CC5)nc4c3)ccc2o1 [Compound 171] | > 10000 nM | < 1000 nM | < 1000 nM | < 100 nM | < 1000 nM |
| Nc1ncc(-c2ccc3oc(N)nc3c2)cn1 [Compound 233] | > 10000 nM | > 10000 nM | < 10000 nM | > 10000 nM | > 10000 nM |
| CC(=O)Nc1cn2cc(-c3ccc4oc(N)nc4c3)ccc2n1 [Compound 234] | < 1000 nM | < 100 nM | < 100 nM | < 100 nM | < 1000 nM |
| CC(=O)Nc1ncc(-c2ccc3oc(N)nc3c2)s1 [Compound 235] | < 10000 nM | < 10000 nM | < 10000 nM | < 10000 nM | > 10000 nM |
| Nc1nc2cc(-c3ccc4ncc(N5CC[C@H](O)C5)nc4c3)ccc2o1 [Compound 262] | < 10000 nM | > 10000 nM | < 1000 nM | < 100 nM | < 1000 nM |
| C[C@@H]1CN(C(=O)C2CN(c3cnc4ccc(-c5ccc6oc(N)nc6c5)cc4n3)C2)CCN1 [Compound 267] | < 10000 nM | < 1000 nM | < 1000 nM | < 100 nM | < 10000 nM |
| Nc1nc2cc(-c3ccc4ncc(N5CC(C(=O)N6CCN(C7CC7)CC6)C5)nc4c3)ccc2o1 [Compound 276] | < 10000 nM | < 1000 nM | < 1000 nM | < 100 nM | < 10000 nM |
| CN1CCN(c2cnc3ccc(-c4ccc5oc(N)nc5c4)cc3n2)CC1=O [Compound 277] | < 10000 nM | < 10000 nM | < 1000 nM | < 100 nM | < 1000 nM |
| Nc1nc2cc(-c3ccc4ncc(N5CCN(C(=O)[C@@H](N)CO)CC5)nc4c3)ccc2o1 [Compound 298] | < 10000 nM | < 10000 nM | < 10000 nM | < 100 nM | < 1000 nM |
| CN1CCN(C2CN(C(=O)c3cnc4ccc(-c5ccc6oc(N)nc6c5)cn34)C2)CC1 [Compound 303] | < 10000 nM | < 10000 nM | > 10000 nM | < 100 nM | > 10000 nM |
| Nc1nc2cc(-c3ccc4ncc(N5CC(N6CCN(C7CC7)CC6)C5)nc4c3)ccc2o1 [Compound 313] | < 10000 nM | < 10000 nM | < 10000 nM | < 100 nM | < 10000 nM |
| Nc1nc2cc(-c3ccc4ncc(N5CC(N6CC[C@@H](O)C6)C5)nc4c3)ccc2o1 [Compound 315] | < 1000 nM | < 10000 nM | < 10000 nM | < 100 nM | < 10000 nM |
| Nc1nc2cc(-c3ccc4ncc(N5CC(n6cccn6)C5)nc4c3)ccc2o1 [Compound 318] | < 1000 nM | > 10000 nM | < 1000 nM | < 100 nM | < 10000 nM |
| Cc1ccn(C2CN(c3cnc4ccc(-c5ccc6oc(N)nc6c5)cc4n3)C2)n1 [Compound 320] | > 10000 nM | < 10000 nM | < 10000 nM | < 100 nM | < 10000 nM |
